Data: patent publication US7667070B2, “Lipophilic compounds and uses thereof” (Centre National de la Recherche Scientifique (CNRS), priority 2002, dated 2010)

Tests used:
[1] = system: K 562, Jurkat, Daudi, HeLa, CFPAC cells; assay: Determination of the cell toxicity of lipid/DNA complexes (CYTOLITE chemiluminescent test, toxicity index); type: cell-based; settings: 48 hours after transfection; non transfected cells as controls
Method: The relative cytotoxicity of the different cationic phosphonolipid/DNA complexes is determined as a representation of the number of living cells after the transfection experiment, measured by using a chemiluminescent test, the CYTOLITE® test (marketed by PACKARD Company, France) following the manufacturer's recommendations.
The cell transfection is conducted following the procedure described in the above Section A.3.
On the day of the transfection, cells are seeded in 24-well plate wells at a level of: • 500,000 cells per well for the non adherent cell lineages (K 562. Jurkat, Daudi); and • 150,000 cells per well for the adherent cell lineages (HeLa, CFPAC cells in primary culture).
The cells are treated for the transfection as described hereinabove and incubated for another period of 48 hours.
After incubation, the cytotoxicity test is conducted following the manufacturer's recommendations.
The amount of relative light units (RLU for <<Relative light units>>) being formed is proportional to the number of living cells.
The non transfected cells are used as controls.
The final results are expressed following a toxicity index. The toxicity index represents the ratio between the number of living cells in the control cultures (without cationic lipids/DNA complex) and the number of living cells in the culture wells containing the transfected cells.

mice's lungs = assay: In vivo transfection of luciferase plasmid DNA complexed with cationic lipid (luciferase in lungs, RLU); parameters: species or system mice of the Swiss lineage; settings: mouse, 50 μg plasmid DNA as lipid/DNA complex; alone or with DOPE or cholesterol; FIG. 6
Method: Cationic lipid/DNA complexes are prepared according to a charge (+/−) ratio of 4 and are administered to six week old mice of the Swiss lineage through one single injection into the caudal vein. Each animal receives a volume of 200 μl of a solution of the tested lipid/DNA complex, corresponding to 50 μg plasmid DNA coding the luciferase protein.
The animals are sacrificed 24 hours after the injection and each organ of interest id deep frozen in liquid nitrogen and then stored at a temperature of −70° C.
The deep frozen tissues are ground with steel balls in a 2 ml round bottom tube of the Epperdorf type using a device of the Mill MM300 mixer type (marketed by QIAGEN Company; reference: 0030120-094).
The extraction of the proteins from each tissue is performed by incubating the ground tissues in a PLB lysis buffer (Promega) followed by a centrifugation at 10,000 g, 10 min at 4° C. […]
Parallelly, the total protein concentration is measured using the <<Coomassie Plus Reagent Assay Kit>> (marketed by Pierce Company). […]
A comparative study of different cationic lipids is conducted by varying the linking part (Group R^3) between the hydrophobic domain and the hydrophilic domain, in mouse. Each lipid is evaluated separately or in admixture with the DOPE compound or cholesterol, used as co-lipids, as described in the <<Material and Methods>> section.

SMILES | cytotoxicity (toxicity index: living cells in control cultures / living cells in transfected cultures) [1] | in vivo transfection efficiency (luciferase amount found in lungs) (mice's lungs)
CCCCCCCCCCCCCCOP(=O)(OCCCCCCCCCCCCCC)N(C)CCC[N+](C)(C)C.[I-] [KLN 5, 3-[[bis(tetradecyloxy)phosphoryl](methyl)amino]-N.N.N-trimethyl-propanaminium iodide] | does not show any toxicity | –
CCCCCCCC/C=C\CCCCCCCCOP(=O)(NCCC[P+](C)(C)C)OCCCCCCCC/C=C\CCCCCCCC.[I-] [KLN20, dioleyl 3-(trimethylphosphonio)propylamidophosphate iodide] | – | most efficient
